Measured values published in patent US20090176755A1, “PHARMACEUTICAL COMPOSITIONS COMPRISING AN ANTIBIOTIC” (priority 2005, published 2009).

Assay: Exposure of form B crystals to high relative humidity or water (polymorphic transformation)
Format: physicochemical
Text: Usually minutes of exposure to high humidity and seconds of exposure to water, such as within an suspension, are sufficient for this transformation. Such conditions are for example found during pharmaceutical production in countries with a humid climate.

## C=CC1=C(C(=O)O)N2C(=O)C(NC(=O)C(=NO)c3csc(N)n3)[C@H]2SC1 (stereo partly drawn) [crystalline form B of cefdinir, 7-[2-(2-aminothiazol-4-yl)-2-hydroxyiminoacetamido]-3-vinyl-3-cephem-4-carboxylic acid]
Exposure to high humidity
  exposure time sufficient for transformation into a different polymorphic form: minutes
Exposure to water, such as within a suspension
  exposure time sufficient for transformation into a different polymorphic form: seconds
Form B crystals exposed to humid conditions
  relative humidity at which form B transforms into a different polymorphic form with reduced stability: higher than 65%
